# Experiments:
# JAK1 = JAK1 (Homo sapiens (Human), UniProt P23458); experiment: Jak Biochemical HTRF Assay, JAK1; conditions: HTRF biochemical assay, GST-tagged catalytic domain; top concentration tested […]; read-out: JAK1 IC50
# From the text: (§1) Jak Biochemical HTRF Assay Protocol
# (§2) Subsequent reagent additions employed an Agilent Bravo.
# JAK2 = JAK2 (Homo sapiens (Human), UniProt O60674); experiment: Jak Biochemical HTRF Assay, JAK2; conditions: HTRF biochemical assay, GST-tagged catalytic domain; top concentration tested […]
# From the text: as §1, §2
# Chain of JAK1 (P23458 875-1153): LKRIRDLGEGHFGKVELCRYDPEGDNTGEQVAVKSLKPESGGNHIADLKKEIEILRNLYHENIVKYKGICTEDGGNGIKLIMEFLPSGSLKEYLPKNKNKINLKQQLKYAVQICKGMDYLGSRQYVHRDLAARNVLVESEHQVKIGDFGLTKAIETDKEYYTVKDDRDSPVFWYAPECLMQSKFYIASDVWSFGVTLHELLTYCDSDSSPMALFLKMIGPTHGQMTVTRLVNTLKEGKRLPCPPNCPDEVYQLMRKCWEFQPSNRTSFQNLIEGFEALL
# Chain of JAK2 (O60674 849-1124): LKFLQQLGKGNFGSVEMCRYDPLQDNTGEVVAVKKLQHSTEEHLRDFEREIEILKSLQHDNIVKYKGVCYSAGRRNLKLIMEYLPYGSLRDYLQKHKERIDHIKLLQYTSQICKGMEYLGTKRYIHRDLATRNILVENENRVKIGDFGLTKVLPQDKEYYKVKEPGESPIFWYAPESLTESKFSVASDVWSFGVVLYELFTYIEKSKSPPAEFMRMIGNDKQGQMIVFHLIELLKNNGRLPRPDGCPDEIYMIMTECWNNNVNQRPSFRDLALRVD
Structure (SMILES),IC50 (JAK1),IC50 (JAK2)
"N#CCC1(n2cc(C(N)=O)c(Nc3ccccc3)n2)CCN(Cc2cccc(F)c2)CC1 [Example 21-18, 1-[4-(cyanomethyl)-1-(3-fluorobenzyl)piperidin-4-yl]-3-(phenylamino)-1H-pyrazole-4-carboxamide]",2 nM,73 nM
"N#CCC1(n2cc(C(N)=O)c(Nc3ccnc(F)c3)n2)CCN(Cc2cccc(=O)[nH]2)CC1 [Example 22-67, 1-{4-(cyanomethyl)-1-[(6-oxo-1,6-dihydropyridin-2-yl)methyl]piperidin-4-yl}-3-[(2-fluoropyridin-4-yl)amino]-1H-pyrazole-4-carboxamide]",1 nM,68 nM
"CC(C)(C)OC(=O)N1CCC(CC#N)(n2cc(C(N)=O)c(Nc3cccc(-c4ccccc4O)c3)n2)CC1 [Example 15-11, tert-butyl 4-{4-carbamoyl-3-[(2′-hydroxybiphenyl-3-yl)amino]-1H-pyrazol-1-yl}-4-(cyanomethyl)piperidine-1-carboxylate]",13 nM,182 nM
"CC(C)(C)OC(=O)N1CCC(CC#N)(n2cc(C(N)=O)c(Nc3ccc(C#N)c(F)c3)n2)CC1 [Example 9-26, tert-butyl 4-{4-carbamoyl-3-[(4-cyano-3-fluorophenyl)amino]-1H-pyrazol-1-yl}-4-(cyanomethyl)piperidine-1-carboxylate]",0.4 nM,7 nM
"N#CCC1(n2cc(C(N)=O)c(Nc3ccccc3)n2)CCN(Cc2ccc(C(F)(F)F)cc2)CC1 [Example 21-19, 1-{4-(cyanomethyl)-1-[4-(trifluoromethyl)benzyl]piperidin-4-yl}-3-(phenylamino)-1H-pyrazole-4-carboxamide]",35 nM,460 nM
"Cc1cnc(F)c(CN2CCC(CC#N)(n3cc(C(N)=O)c(Nc4ccc(F)cc4)n3)CC2)c1 [Example 22-44, 1-{4-(cyanomethyl)-1-[(2-fluoro-5-methylpyridin-3-yl)methyl]piperidin-4-yl}-3-[(4-fluorophenyl)amino]-1H-pyrazole-4-carboxamide]",5 nM,22 nM
"CS(=O)(=O)c1ccc(Nc2nn(C3(CC#N)CCCCC3)cc2C(N)=O)cc1 [Example 2-14, 1-[1-(cyanomethyl)cyclohexyl]-3-{[4-(methylsulfonyl)phenyl]amino}-1H-pyrazole-4-carboxamide]",20 nM,193 nM
"N#CCC1(n2cc(C(N)=O)c(Nc3ccc(F)cc3)n2)CCN(c2cccnc2)CC1 [Example 3-30, 1-[4-(cyanomethyl)-1-pyridin-3-ylpiperidin-4-yl]-3-[(4-fluorophenyl)amino]-1H-pyrazole-4-carboxamide]",0.3 nM,6 nM
"N#CCC1(n2cc(C(N)=O)c(Nc3ccccc3)n2)COC1 [Example 2-20, 1-[3-(cyanomethyl)oxetan-3-yl]-3-(phenylamino)-1H-pyrazole-4-carboxamide]",33 nM,241 nM
"CC(C)(C)OC(=O)N1CCC(CC#N)(n2cc(C(N)=O)c(Nc3cc(F)cc(F)c3)n2)CC1 [Example 12-3, tert-butyl 4-{4-carbamoyl-3-[(3,5-difluorophenyl)amino]-1H-pyrazol-1-yl}-4-(cyanomethyl)piperidine-1-carboxylate]",2 nM,42 nM
N#CCC1(n2cc(C(N)=O)c(Nc3ccnc(F)c3)n2)CCN(Cc2cnn3ccccc23)CC1 [Example 22-17],17 nM,503 nM
"CC(C)(C)OC(=O)N1CCC(CC#N)(n2cc(C(N)=O)c(Nc3ccc(C(=O)C(F)(F)F)cc3)n2)CC1 [Example 9-11, tert-butyl 4-(4-carbamoyl-3-{[4-(trifluoroacetyl)phenyl]amino}-1H-pyrazol-1-yl)-4-(cyanomethyl)piperidine-1-carboxylate]",0.2 nM,3 nM
"N#CCC1(n2cc(C(N)=O)c(Nc3ccc(F)cc3)n2)CCN(c2cccc(C#N)n2)CC1 [Example 3-18, 1-[4-(cyanomethyl)-1-(6-cyanopyridin-2-yl)piperidin-4-yl]-3-[(4-fluorophenyl)amino]-1H-pyrazole-4-carboxamide]",3 nM,89 nM
"COC(=O)N1CCC(CC#N)(n2cc(C(N)=O)c(Nc3ccccc3)n2)CC1 [Example 27-5, methyl 4-[4-carbamoyl-3-(phenylamino)-1H-pyrazol-1-yl]-4-(cyanomethyl)piperidine-1-carboxylate]",50 nM,235 nM
"N#CCC1(n2cc(C(N)=O)c(Nc3ccnc(F)c3)n2)CCN(Cc2cccc(Cl)c2)CC1 [Example 22-61, 1-[1-(3-chlorobenzyl)-4-(cyanomethyl)piperidin-4-yl]-3-[(2-fluoropyridin-4-yl)amino]-1H-pyrazole-4-carboxamide]",0.4 nM,10 nM
"Cc1cccc(N2CCC(CC#N)(n3cc(C(N)=O)c(Nc4ccc(F)cc4)n3)CC2)c1F [Example 3-43, 1-[4-(cyanomethyl)-1-(2-fluoro-3-methylphenyl)piperidin-4-yl]-3-[(4-fluorophenyl)amino]-1H-pyrazole-4-carboxamide]",10 nM,295 nM
"CCCc1ccc(CN2CCC(CC#N)(n3cc(C(N)=O)c(Nc4ccccc4)n3)CC2)cc1 [Example 21-22, 1-[4-(cyanomethyl)-1-(4-propylbenzyl)piperidin-4-yl]-3-(phenylamino)-1H-pyrazole-4-carboxamide]",72 nM,888 nM

# Next, values leading:
IC50 (JAK1),IC50 (JAK2),Structure (SMILES)
24 nM,912 nM,"N#CCC1(n2cc(C(N)=O)c(Nc3ccnc(F)c3)n2)CCC(NCc2ccccc2Cl)CC1 (stereo not drawn) [Example 41-16, Cis or trans 1-{4-[(2-chlorobenzyl)amino]-1-(cyanomethyl)cyclohexyl}-3-[(2-fluoropyridin-4-yl)amino]-1H-pyrazole-4-carboxamide]"
14 nM,191 nM,"N#CCC1(n2cc(C(N)=O)c(Nc3ccccc3)n2)CCN(C(=O)c2cccnc2)CC1 [Example 34-8, 1-[4-(cyanomethyl)-1-(pyridin-3-ylcarbonyl)piperidin-4-yl]-3-(phenylamino)-1H-pyrazole-4-carboxamide]"
2 nM,38 nM,"CC(O)(C(=O)N1CCC(CC#N)(n2cc(C(N)=O)c(Nc3ccnc(F)c3)n2)CC1)C(F)F (centres unmarked) [Example 34-61, 1-[4-(cyanomethyl)-1-(3,3-difluoro-2-hydroxy-2-methylpropanoyl)piperidin-4-yl]-3-[(2-fluoropyridin-4-yl)amino]-1H-pyrazole-4-carboxamide]"
8 nM,273 nM,"N#CCC1(n2cc(C(N)=O)c(Nc3ccc(F)cc3)n2)CCC(N2CCC(O)CC2)CC1 (stereo not drawn) [Example 40-27, Cis or trans 1-[1-(cyanomethyl)-4-(4-hydroxypiperidin-1-yl)cyclohexyl]-3-[(4-fluorophenyl)amino]-1H-pyrazole-4-carboxamide]"
20 nM,322 nM,"CCCCNC(=O)N1CC(CC#N)(n2cc(C(N)=O)c(Nc3ccc(S(C)(=O)=O)cc3)n2)C1 [Example 38-43, 1-[1-(butylcarbamoyl)-3-(cyanomethyl)azetidin-3-yl]-3-{[4-(methylsulfonyl)phenyl]amino}-1H-pyrazole-4-carboxamide]"
7 nM,173 nM,"N#CCC1(n2cc(C(N)=O)c(Nc3ccccc3)n2)CN(C(=O)Nc2ccc(F)c(F)c2)C1 [Example 38-21, 1-{3-(cyanomethyl)-1-[(3,4-difluorophenyl)carbamoyl]azetidin-3-yl}-3-(phenylamino)-1H-pyrazole-4-carboxamide]"
14 nM,428 nM,"CC(C)c1ccccc1NC(=O)N1CC(CC#N)(n2cc(C(N)=O)c(Nc3ccccc3)n2)C1 [Example 38-8, 1-[3-(cyanomethyl)-1-{[2-(1-methylethyl)phenyl]carbamoyl}azetidin-3-yl]-3-(phenylamino)-1H-pyrazole-4-carboxamide]"
19 nM,249 nM,"Cc1c(Cl)cccc1NC(=O)N1CC(CC#N)(n2cc(C(N)=O)c(Nc3ccccc3)n2)C1 [Example 38-22, 1-{1-[(3-chloro-2-methylphenyl)carbamoyl]-3-(cyanomethyl)azetidin-3-yl}-3-(phenylamino)-1H-pyrazole-4-carboxamide]"
4 nM,71 nM,"COCCOC(=O)N1CCC(CC#N)(n2cc(C(N)=O)c(Nc3ccccc3)n2)CC1 [Example 30-35, 2-methoxyethyl 4-[4-carbamoyl-3-(phenylamino)-1H-pyrazol-1-yl]-4-(cyanomethyl)piperidine-1-carboxylate]"
0.7 nM,3 nM,"COc1cccc(S(=O)(=O)N2CCC(CC#N)(n3cc(C(N)=O)c(Nc4ccccc4)n3)CC2)c1 [Example 37-10, 1-{4-(cyanomethyl)-1-[(3-methoxyphenyl)sulfonyl]piperidin-4-yl}-3-(phenylamino)-1H-pyrazole-4-carboxamide]"
3 nM,76 nM,"N#CCC1(n2cc(C(N)=O)c(Nc3ccccc3)n2)CN(C(=O)OC2CCCC2)C1 [Example 30-52, cyclopentyl 3-[4-carbamoyl-3-(phenylamino)-1H-pyrazol-1-yl]-3-(cyanomethyl)azetidine-1-carboxylate]"
15 nM,195 nM,"Cc1cc(C(=O)N2CCC(CC#N)(n3cc(C(N)=O)c(Nc4ccccc4)n3)CC2)no1 [Example 34-12, 1-{4-(cyanomethyl)-1-[(5-methylisoxazol-3-yl)carbonyl]piperidin-4-yl}-3-(phenylamino)-1H-pyrazole-4-carboxamide]"
28 nM,1050 nM,"N#CCC1(n2cc(C(N)=O)c(Nc3ccnc(F)c3)n2)CCC(NCc2cccnc2)CC1 (stereo not drawn) [Example 41-22, Cis or trans 1-{1-(cyanomethyl)-4-[(pyridin-3-ylmethyl)amino]cyclohexyl}-3-[(2-fluoropyridin-4-yl)amino]-1H-pyrazole-4-carboxamide]"
6 nM,79 nM,"N#CCC1(n2cc(C(N)=O)c(Nc3ccccc3)n2)CN(C(=O)Nc2ccc(F)cc2F)C1 [Example 38-28, 1-{3-(cyanomethyl)-1-[(2,4-difluorophenyl)carbamoyl]azetidin-3-yl}-3-(phenylamino)-1H-pyrazole-4-carboxamide]"

# From patent US9328099B2, “Cyanomethylpyrazole carboxamides as janus kinase inhibitors” (Merck Sharp & Dohme Corp., priority 2011, dated 2016)
